target: T1, Bcl-2-related protein A1 (Mus musculus, UniProt Q07440); assay: Bfl-1 inhibitors blocking BH3 peptide binding, confirmation, biochemical, TR-FRET, mouse Bfl-1 (AID 621)
T1 sequence (Q07440 whole entry): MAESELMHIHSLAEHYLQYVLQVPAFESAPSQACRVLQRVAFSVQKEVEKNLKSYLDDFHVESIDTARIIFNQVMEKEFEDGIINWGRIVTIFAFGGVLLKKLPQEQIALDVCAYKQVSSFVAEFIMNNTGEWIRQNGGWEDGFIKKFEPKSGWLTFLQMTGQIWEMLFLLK

| SMILES | IC50 [µM] |
| --- | --- |
| Oc1c(Cl)c(N=Cc2ccccc2)c(O)n1-c1ccc(Cl)c(Cl)c1 [MLS-0067125.0001] | 73.7 |
| Cc1ccc(N=C2C(=O)N(c3ccc(C)cc3)C(=O)C2Cl)cc1 (configuration not stated) [3-chloranyl-1-(4-methylphenyl)-4-[(4-methylphenyl)amino]pyrrole-2,5-dione] | 2.54 |
| O=C1C(=O)N(c2ncccn2)C(c2cccc(Cl)c2)C1C(=O)c1ccco1 (configuration not stated) [2-(3-chlorophenyl)-3-(furan-2-carbonyl)-4-hydroxy-1-pyrimidin-2-yl-2H-pyrrol-5-one] | > 100 |
| COCC=Nc1c(Cl)c(O)n(-c2ccc(Cl)c(Cl)c2)c1O [3-chloranyl-1-(3,4-dichlorophenyl)-4-(2-methoxyethylamino)pyrrole-2,5-dione] | 4.96 |
| OCCCc1nc2n(n1)C(c1cccs1)CC(c1ccccc1)=N2 (configuration not stated) [3-(5-phenyl-7-thiophen-2-yl-1,7-dihydro-[1,2,4]triazolo[1,5-a]pyrimidin-2-yl)-1-propanol] | > 100 |
| CCCN1CCC2=C(C#N)C(=N)C(C#N)(C#N)C(c3cccc(OC)c3OC)C2C1 (configuration not stated) [6-amino-8-(2,3-dimethoxyphenyl)-2-propyl-1,3,8,8a-tetrahydroisoquinoline-5,7,7-tricarbonitrile] | > 100 |
| CN1CCC2=C(C#N)C(=N)C(C#N)(C#N)[C@H](c3cccc(Cl)c3)C2C1 (stereo partly drawn) [(8S)-6-amino-8-(3-chlorophenyl)-2-methyl-1,3,8,8a-tetrahydroisoquinoline-5,7,7-tricarbonitrile] | > 100 |
| Cc1ccc(C2C3CN(C(C)C)CCC3=C(C#N)C(=N)C2(C#N)C#N)cc1 (configuration not stated) [SMR000034220] | > 100 |
| O=C1C(=Nc2ccc(F)cc2)C(Cl)C(=O)N1c1ccc(Cl)c(Cl)c1 (configuration not stated) [3-chloranyl-1-(3,4-dichlorophenyl)-4-[(4-fluorophenyl)amino]pyrrole-2,5-dione] | 96.5 |
| COc1ccc(N2C(=O)C(=Nc3c(C)n(C)n(-c4ccccc4)c3=O)C(Cl)C2=O)cc1 (configuration not stated) [3-chloranyl-4-[(1,5-dimethyl-3-oxidanylidene-2-phenyl-pyrazol-4-yl)amino]-1-(4-methoxyphenyl)pyrrole-2,5-dione] | > 100 |
| CN1CCC2=C(C#N)C(=N)C(C#N)(C#N)C(c3cccc(Cl)c3Cl)C2C1 (configuration not stated) [6-azanyl-8-[2,3-bis(chloranyl)phenyl]-2-methyl-1,3,8,8a-tetrahydroisoquinoline-5,7,7-tricarbonitrile] | > 100 |
| c1ccc(-c2ccc(C3=Nc4ncnn4C(c4ccco4)C3)cc2)cc1 (configuration not stated) | > 100 |
